Laboratory results taken from patent US7368576B2, “Dipeptidyl peptidase IV inhibitors and their uses as anti-cancer agents” (Probiodrug AG, priority 2001, dated 2008).

Assays:
Type in all cases: biochemical
[1] = target: T1, dipeptidyl peptidase IV from porcine kidney (Sus scrofa, UniProt P22411); test: Ki determination, DPIV inhibition (glycylprolyl-4-nitroaniline); details: HEPES pH7.6, 30° C.
T1 construct: dipeptidyl peptidase IV from porcine kidney; from tissue; host or cells: porcine kidney
T1 sequence (P22411 whole entry): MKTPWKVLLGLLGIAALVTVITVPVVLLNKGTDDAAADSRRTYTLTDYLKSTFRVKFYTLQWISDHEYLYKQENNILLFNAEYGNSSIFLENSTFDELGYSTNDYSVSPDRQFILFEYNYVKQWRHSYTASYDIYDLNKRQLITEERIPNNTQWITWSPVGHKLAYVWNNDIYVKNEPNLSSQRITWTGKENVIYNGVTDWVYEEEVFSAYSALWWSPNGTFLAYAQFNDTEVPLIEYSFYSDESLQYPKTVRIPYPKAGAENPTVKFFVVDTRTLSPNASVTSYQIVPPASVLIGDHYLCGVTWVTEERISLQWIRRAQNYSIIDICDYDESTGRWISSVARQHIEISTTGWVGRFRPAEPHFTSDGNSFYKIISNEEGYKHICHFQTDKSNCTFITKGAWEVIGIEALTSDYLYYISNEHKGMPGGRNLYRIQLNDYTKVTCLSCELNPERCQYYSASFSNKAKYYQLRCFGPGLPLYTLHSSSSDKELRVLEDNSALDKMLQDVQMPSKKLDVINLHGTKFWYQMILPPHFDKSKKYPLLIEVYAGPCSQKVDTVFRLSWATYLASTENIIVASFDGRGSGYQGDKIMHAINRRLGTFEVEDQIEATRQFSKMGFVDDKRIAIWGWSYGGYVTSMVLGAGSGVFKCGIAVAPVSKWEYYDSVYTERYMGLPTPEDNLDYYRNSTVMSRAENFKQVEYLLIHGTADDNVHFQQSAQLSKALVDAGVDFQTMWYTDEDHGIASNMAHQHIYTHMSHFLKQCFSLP

purified porcine DPIV = purified porcine DPIV (Sus scrofa, UniProt P22411); test: Determination of IC50 values, DPIV (Gly-Pro-pNA); details: Gly-Pro-pNA 0.4 mM, HEPES pH7.6, 30° C.
Chain of purified porcine DPIV (P22411 whole entry): as above
Experimental: 100 μl inhibitor stock solution were mixed with 100 μl buffer (HEPES pH7.6) and 50 μl substrate (Gly-Pro-pNA, final concentration 0.4 mM) and preincubated at 30° C. Reaction was started by addition of 20 μl purified porcine DPIV. Formation of the product pNA was measured at 405 nm over 10 min using the HTS 7000Plus plate reader (Perkin Elmer) and slopes were calculated. The final inhibitor concentrations ranged between 1 mM and 30 nM. For calculation of IC50 GraFit 4.0.13 (Erithacus Software) was used.

[2] = target: T2, Dipeptidyl Peptidase I (DP I, Cathepsin C) (Rattus norvegicus, UniProt P80067); test: Cross reacting enzymes: dipeptidyl peptidase I; details: concentration range 1*10^−5 M-1*10^−7 M
T2 construct: purchased Qiagen GmbH, Hilden, Germany
T2 sequence (P80067 25-462): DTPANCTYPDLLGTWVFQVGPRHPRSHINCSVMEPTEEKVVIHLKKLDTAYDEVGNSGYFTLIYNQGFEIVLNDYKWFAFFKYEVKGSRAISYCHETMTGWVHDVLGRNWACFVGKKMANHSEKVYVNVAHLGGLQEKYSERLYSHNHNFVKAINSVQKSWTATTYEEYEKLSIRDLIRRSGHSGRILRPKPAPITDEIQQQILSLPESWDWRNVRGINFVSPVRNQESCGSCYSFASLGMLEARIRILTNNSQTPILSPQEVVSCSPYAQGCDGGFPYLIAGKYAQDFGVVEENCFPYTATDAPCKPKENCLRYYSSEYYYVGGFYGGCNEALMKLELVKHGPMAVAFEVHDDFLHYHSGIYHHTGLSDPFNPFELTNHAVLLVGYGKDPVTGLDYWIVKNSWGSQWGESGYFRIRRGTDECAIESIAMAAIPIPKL
Experimental: DP I or cathepsin C is a lysosomal cysteine protease which cleaves off dipeptides from the N-terminus of their substrates (Gutman, H. R. & Fruton, J. S., 1948, J. Biol: Chem., 174, 851-858). It is classified as a cysteine protease. The enzyme used was purchased from Qiagen (Qiagen GmbH, Hilden, Germany). In order to get a fully active enzyme, the enzyme was diluted 1000fold in MES buffer pH5.6 (40 mM MES, 4 mM DTT, 4 mM KCl, 2 mM EDTA, 0.015% Brij) and pre-incubated for 30 min at 30° C.
50 μl glutaminyl pyrrolidine or glutaminyl thiazolidine in a concentration range of 1*10^−5 M-1*10^−7 M were admixed with 110 μl buffer-enzyme-mixture. The assay mixture was pre-incubated at 30° C. for 15 min. After pre-incubation, 100 μl histidylseryl-β-nitroaniline (2*10^-5M) was added and measurement of yellow color development due to β-nitroaniline release was performed at 30° C. and […] for 10 min., using a plate reader (HTS7000 plus, Applied Biosystems, Weiterstadt, Germany).
The IC50-values were calculated using Graphit 4.0.15 (Erithacus Software, Ltd., UK).

[3] = target: T3, recombinant human prolyl oligopeptidase (POP) (Homo sapiens, UniProt P48147); test: Cross reacting enzymes: prolyl oligopeptidase; details: concentration range 1*10^−4 M-5*10^−8 M
T3 construct: made in house; host or cells: E. coli
T3 sequence (P48147 1-710): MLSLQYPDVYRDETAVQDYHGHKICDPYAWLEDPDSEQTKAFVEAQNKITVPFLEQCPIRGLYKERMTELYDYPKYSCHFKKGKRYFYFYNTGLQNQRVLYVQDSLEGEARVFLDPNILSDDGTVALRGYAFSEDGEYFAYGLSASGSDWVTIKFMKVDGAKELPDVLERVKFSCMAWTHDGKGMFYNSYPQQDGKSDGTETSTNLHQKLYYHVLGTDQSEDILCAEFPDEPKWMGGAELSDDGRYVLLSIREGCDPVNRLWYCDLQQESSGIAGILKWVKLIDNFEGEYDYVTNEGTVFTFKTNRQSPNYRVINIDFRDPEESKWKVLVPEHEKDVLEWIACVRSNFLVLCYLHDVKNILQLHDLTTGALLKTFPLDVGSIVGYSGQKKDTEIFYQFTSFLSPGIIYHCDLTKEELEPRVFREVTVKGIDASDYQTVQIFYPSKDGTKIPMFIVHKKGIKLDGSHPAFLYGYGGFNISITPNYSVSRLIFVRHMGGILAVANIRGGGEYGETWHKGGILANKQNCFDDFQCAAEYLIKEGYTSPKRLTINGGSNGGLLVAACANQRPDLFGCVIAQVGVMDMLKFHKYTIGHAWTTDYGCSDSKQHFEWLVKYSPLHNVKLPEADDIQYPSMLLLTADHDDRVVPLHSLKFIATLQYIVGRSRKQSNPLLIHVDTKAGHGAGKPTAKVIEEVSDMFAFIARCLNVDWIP
Experimental: Substrates are peptides with a molecular weight up to 3000 Da. The enzyme used was a recombinant human prolyl oligopeptidase. Recombinant expression was performed in E. coli under standard conditions as described elsewhere in the state of the art.
100 μl glutaminyl pyrrolidine or glutaminyl thiazolidine in an concentration range of 1*10^−4 M-5*10^−8 M were admixed with 100 μl μl buffer solution (40 mM HEPES, pH7.6, 0.015% Brij, 1 mM DTT) and 20 μl POP solution. The assay mixture was pre-incubated at 30° C. for 15 min. After pre-incubation, 50 μl glycylprolylprolyl-4-nitroaniline solution (0.29 mM) was added and measurement of yellow color development due to 4-nitroaniline release was performed at 30° C. and λ=405 nm for 10 min using a plate reader (sunrise, Tecan, Crailsheim, Germany). The IC50-values were calculated using Graphit 4.0.15 (Erithacus Software, Ltd., UK).

Ki [1]: 2.26 µM
IC50 (purified porcine DPIV): 15 µM
inhibition of the DP I enzyme activity [2]: No inhibition
inhibition of POP activity [3]: No inhibition
SMILES: NC(=O)CCC(N)C(=O)N1CCCC1 (stereo not shown) [Gln-Pyrr, glutaminyl pyrrolidine]
